# Test results: PubChem BioAssay AID2060884 (Molecular Pharmacology Branch, DTP, NCI, 2025)
# Tested on: NCI-H929 complex spheroids, viability % test/control
# Assay: Anticancer human tumor NCI-H929 cell line growth inhibition [RAS];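 also: compound exposure lasted seven days before viability was read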
# Details: for IC50: curve of first compound; for viability, T/C: stronger effect = lower value
# From the text: RAS pathway inhibitors in Combinations in Complex Spheroids
# A high-throughput screen of multi-cell type tumor spheroids was designed to identify active combinations of RAS pathway inhibitors and targeted small molecules. Complex spheroids include a stromal component modeled by human endothelial cells (HUVEC) and fibroblasts modeled by human mesenchymal stem cells (MSCs). The concentration ranges selected for each drug and investigational agent were based upon clinically achievable concentrations if the clinical Cmax of the agent was known.
# Compounds. The drugs and investigational agents: abemaciclib (NSC768073), cobimetinib (NSC768068), divarasib (GDC6063, NSC841802), docetaxel (NSC628503), GDC-1971 (RLY-1971, NSC841576), gemcitabine (NSC613327), inavolisib (NSC800729), ipatasertib (NSC767898), KB-0742 (NSC834161), MRTX-1133 (NSC836407), osimertinib (NSC779217), RMC-4630 (NSC839698), RMC-6236 (NSC851965), RMC-6291 (NSC852671), Ro-3306 (NSC812927), sapanisertib (NSC764658), SN-38 (NSC673596), staurosporine (NSC755774), SY5609 (NSC837396), and tovorafenib (DAY101, NSC766906), were obtained from the National Cancer Institute (NCI) Developmental Therapeutics Program Chemical Repository. The FDA-approved anticancer drug set is available from the NCI Developmental Therapeutics Program. […] The stock solutions were prepared in dimethyl sulfoxide (DMSO, Sigma-Aldrich, St. Louis, MO, cat. D2650) at 800-fold the tested concentration and stored at -70 degrees C prior to their use. All drugs and investigational agents were tested over a range starting from a high concentration at or near the clinical Cmax and decreasing in half-log increments. If the clinical Cmax for an agent had not been determined, the highest concentration tested was 10 microM.
# Cell Culture. All cells were maintained in an incubator at 37 degrees C and 5% CO2 with 95% humidity. The PDC lines were cultured according to standard operating procedures established by the NCI PDMR. All PDCs were thawed and cultured in Matrigel-coated flasks prepared with a working solution of 1X Ham's F-12 nutrient mix, without supplementation (Invitrogen, Waltham, MA, cat. 11765054), 100 U/mL penicillin-streptomycin (Invitrogen, cat. 15140122), and 2.5% Matrigel (Corning Inc., Corning, NY, cat. 354248) for the first three passages. The 362531-283-R-J2-PDC and 782815-120-R-J1-PDC lines were cultured in 6C/Colon 1B media, which includes advanced DMEM/F-12 (Thermo Fisher Scientific, cat. 12634028), 10 mM HEPES (Thermo Fisher Scientific, cat. 15630080), 1X GlutaMAX supplement (Thermo Fisher Scientific, cat. 35050061), 0.1 mg/mL primocin (InvivoGen, San Diego, CA, cat. ant-pm-2), 10% defined fetal bovine serum, heat inactivated (HyClone Laboratories Inc., Logan, UT, cat. SH30070.03HI), 50% L-WRN conditioned media (ATCC, cat. CRL-3276), 1.25 mM N-Acetyl-L-cysteine (Sigma-Aldrich, cat. A9165), 10 mM nicotinamide (Sigma-Aldrich, cat. N0636), 1X B-27 supplement (Thermo Fisher Scientific, cat. 17504044), 1X N-2 supplement (Thermo Fisher Scientific, cat. 17502048), 50 ng/mL human EGF (Thermo Fisher Scientific, cat. PHG0311), and 10 microM Y-27632 dihydrochloride (Tocris Bioscience, cat. 1254). The K12877-001-R-J1-PDC line was cultured in 6I media, which includes all 6C/Colon 1B media plus 10 ng/mL human FGF-10 (PeproTech, cat. 100-26), 1 ng/mL human FGF-2 (PeproTech, cat. 100-18B), 1 µM prostaglandin E2 (Tocris Bioscience, cat. 2296), […] hydrocortisone (Sigma-Aldrich, cat. H4001), and […] bovine insulin (Sigma-Aldrich, cat. I6634). The K86415-001-R-J1-PDC line was cultured in 6D media, which includes all 6C/Colon 1B media components minus the L-WRN conditioned media. The 485176-168-R4-J1-PDC was cultured in PANC media, which includes all 6C/Colon 1B media plus 100 ng/mL human FGF-10 (PeproTech, cat. 100-26), 500 nM SB-431542 (Selleckchem, cat. S1067), and 10 nM gastrin (Tocris Bioscience, cat. 3006). […]
# [1] = second compound 0.000949 µM, first compound 0.0316 µM
# [2] = second compound 0.000949 µM, first compound 0.1 µM
# [3] = second compound 0.000949 µM, first compound 0.316 µM
# [4] = second compound 0.000949 µM, first compound 1 µM
# [5] = second compound 0.003 µM, first compound 0.0316 µM
# [6] = second compound 0.003 µM, first compound 0.1 µM
# [7] = second compound 0.003 µM, first compound 0.316 µM
# [8] = second compound 0.003 µM, first compound 1 µM
# [9] = second compound 0.00949 µM, first compound 0.0316 µM
# [10] = second compound 0.00949 µM, first compound 0.1 µM
# [11] = second compound 0.00949 µM, first compound 0.316 µM
# [12] = second compound 0.00949 µM, first compound 1 µM
# [13] = second compound 0.03 µM, first compound 0.0316 µM
# [14] = second compound 0.03 µM, first compound 0.1 µM
# [15] = second compound 0.03 µM, first compound 0.316 µM
# [16] = second compound 0.03 µM, first compound 1 µM
# [17] = second compound 0.0949 µM, first compound 0.0316 µM
# [18] = second compound 0.0949 µM, first compound 0.1 µM
# [19] = second compound 0.0949 µM, first compound 0.316 µM
# [20] = second compound 0.0949 µM, first compound 1 µM
# [21] = second compound 0.3 µM, first compound 0.0316 µM
# [22] = second compound 0.3 µM, first compound 0.1 µM
# [23] = second compound 0.3 µM, first compound 0.316 µM
# [24] = second compound 0.3 µM, first compound 1 µM
smiles,measurement,setting,value
C=CC(=O)N1CCN(c2nc(OCC3CCCN3C)nc3c(F)c(-c4nc(N)cc(C)c4C(F)(F)F)c(Cl)cc23)C(C)C1 (centres undefined) + CCn1c(-c2cc(N3CCN(C)CC3)cnc2C(C)OC)c2c3cc(ccc31)-c1csc(n1)CC(NC(=O)C1CC1C)C(=O)N1CCCC(N1)C(=O)OCC(C)(C)C2,IC50,second compound 0.000949 µM,> 1000 nM
same,IC50,second compound 0.003 µM,> 1000 nM
same,IC50,second compound 0.00949 µM,> 1000 nM
same,IC50,second compound 0.03 µM,> 1000 nM
same,IC50,second compound 0.0949 µM,< 3.16 nM
same,IC50,second compound 0.3 µM,< 3.16 nM
same,"viability, T/C","second compound 0.000949 µM, first compound 0.00316 µM",98.6%
same,"viability, T/C","second compound 0.000949 µM, first compound 0.01 µM",92.4%
same,"viability, T/C",[1],102%
same,"viability, T/C",[2],96.4%
same,"viability, T/C",[3],101%
same,"viability, T/C",[4],107%
same,"viability, T/C","second compound 0.003 µM, first compound 0.00316 µM",89.5%
same,"viability, T/C","second compound 0.003 µM, first compound 0.01 µM",97.1%
same,"viability, T/C",[5],97.5%
same,"viability, T/C",[6],96.6%
same,"viability, T/C",[7],101%
same,"viability, T/C",[8],97.2%
same,"viability, T/C","second compound 0.00949 µM, first compound 0.00316 µM",109%
same,"viability, T/C","second compound 0.00949 µM, first compound 0.01 µM",115%
same,"viability, T/C",[9],116%
same,"viability, T/C",[10],114%
same,"viability, T/C",[11],114%
same,"viability, T/C",[12],116%
same,"viability, T/C","second compound 0.03 µM, first compound 0.00316 µM",69.4%
same,"viability, T/C","second compound 0.03 µM, first compound 0.01 µM",70.8%
same,"viability, T/C",[13],78.2%
same,"viability, T/C",[14],91%
same,"viability, T/C",[15],89.7%
same,"viability, T/C",[16],65.1%
same,"viability, T/C","second compound 0.0949 µM, first compound 0.00316 µM",8.79%
same,"viability, T/C","second compound 0.0949 µM, first compound 0.01 µM",7.92%
same,"viability, T/C",[17],7.39%
same,"viability, T/C",[18],10.4%
same,"viability, T/C",[19],12.4%
same,"viability, T/C",[20],8.5%
same,"viability, T/C","second compound 0.3 µM, first compound 0.00316 µM",4.59%
same,"viability, T/C","second compound 0.3 µM, first compound 0.01 µM",4.22%
same,"viability, T/C",[21],3.75%
same,"viability, T/C",[22],4.24%
same,"viability, T/C",[23],4.79%
same,"viability, T/C",[24],3.26%
CC1(O)CCCC1n1c(=O)c(C(F)F)cc2cnc(NC3CCN(S(C)(=O)=O)CC3)nc21 (centres undefined) + CCn1c(-c2cc(N3CCN(C)CC3)cnc2C(C)OC)c2c3cc(ccc31)-c1csc(n1)CC(NC(=O)C1CC1C)C(=O)N1CCCC(N1)C(=O)OCC(C)(C)C2,IC50,second compound 0.000949 µM,188 nM
same,IC50,second compound 0.003 µM,191 nM
same,IC50,second compound 0.00949 µM,200 nM
same,IC50,second compound 0.03 µM,57.5 nM
same,IC50,second compound 0.0949 µM,< 31.6 nM
same,IC50,second compound 0.3 µM,< 31.6 nM
same,"viability, T/C",[1],109%
same,"viability, T/C",[2],106%
same,"viability, T/C",[3],3.79%
same,"viability, T/C",[4],4.11%
same,"viability, T/C","second compound 0.000949 µM, first compound 3.16 µM",3.8%
same,"viability, T/C","second compound 0.000949 µM, first compound 10 µM",0.15%
same,"viability, T/C",[5],103%
same,"viability, T/C",[6],115%
same,"viability, T/C",[7],2.16%
same,"viability, T/C",[8],7.09%
same,"viability, T/C","second compound 0.003 µM, first compound 3.16 µM",7.23%
same,"viability, T/C","second compound 0.003 µM, first compound 10 µM",0.06%
same,"viability, T/C",[9],113%
same,"viability, T/C",[10],117%
same,"viability, T/C",[11],4.34%
same,"viability, T/C",[12],14.1%
same,"viability, T/C","second compound 0.00949 µM, first compound 3.16 µM",8.7%
same,"viability, T/C","second compound 0.00949 µM, first compound 10 µM",0.05%
same,"viability, T/C",[13],72.2%
same,"viability, T/C",[14],29.5%
same,"viability, T/C",[15],4.66%
same,"viability, T/C",[16],9.27%
same,"viability, T/C","second compound 0.03 µM, first compound 3.16 µM",2.06%
same,"viability, T/C","second compound 0.03 µM, first compound 10 µM",0.13%
same,"viability, T/C",[17],6.97%
same,"viability, T/C",[18],4.65%
same,"viability, T/C",[19],3.2%
same,"viability, T/C",[20],2.92%
same,"viability, T/C","second compound 0.0949 µM, first compound 3.16 µM",0.85%
same,"viability, T/C","second compound 0.0949 µM, first compound 10 µM",0.09%
same,"viability, T/C",[21],3.5%
same,"viability, T/C",[22],2.32%
same,"viability, T/C",[23],2.57%
same,"viability, T/C",[24],1.68%
same,"viability, T/C","second compound 0.3 µM, first compound 3.16 µM",0.72%
same,"viability, T/C","second compound 0.3 µM, first compound 10 µM",8.23%
